Experimental data: patent US20220152087A1, “CYCLODEXTRIN DERIVATIVES REDUCING FLAVIVIRUS NS1-INDUCED ENDOTHELIAL HYPERPERMEABILITY AND VASCULAR LEAK” (priority 2020, published 2022)

system: endothelial dysfunction induced by DENV NS1 in HPMEC monolayers; assay: Effect of cyclodextrins on endothelial dysfunction induced by DENV NS1 (TEER of HPMEC monolayers in transwells); assay type: cell-based, human; details: DENV NS1 at 10 micrograms/mL, TEER 2 to 10 hours post-treatment, AUC vs DENV NS1-only control
Protocol: The present invention is based on the evaluation of the in vitro efficacy against DENV NS1-mediated pathogenesis of a series of different CDs that display variable cavity sizes as well as different degrees and types of substitution. In an in vitro model of endothelial permeability, CDs, at concentrations with no anticoagulant effects, were added to human pulmonary microvascular endothelial cells (HPMECs) treated with DENV NS1 to induce endothelial hyperpermeability.
Endothelial disruption (hyperpermeability) was quantified by measuring transendothelial electrical resistance (TEER). […] Sulfate group substitution of cyclodextrins contributed to the anti-leak activity.
The method is suitable to study the effect of NS1 from DENV from all serotypes and NS1 from other flaviviruses. HPMEC monolayers (6×10^4 cells/transwell) cultured in transwell inserts for three days were treated with the CD compounds then treated or not with DENV NS1 at 10 micrograms/mL. Recombinant NS1 protein from DENV (Strain 16681) weas certified to be endotoxin-free and >95% purity (Native Antigen, United Kingdom). TEER was measured from 2 to 10 hours post-treatment. The area under the curve of the different treatments+DENV NS1 was compared by one-way ANOVA plus Dunnett's test to the DENV NS1-only control.
Randomly substituted alpha-cyclodextrin sulfate sodium salt (average degree of substitution: ˜12) was used as specified according to Example 1. […] A) HPMEC monolayers (6×10e4 cells/transwell) cultured in transwell inserts for three days were treated with the compounds in the presence or absence of DENV NS1 at 10 ug/mL. TEER was measured from 2 to 10 hours post-treatment. Relative TEER was calculated as the ratio between resistance values obtained in the different treatments and medium-only controls. B) Area under the curve of the different treatments was compared by one-way ANOVA plus Dunnett's test to the DENV NS1control. P-values are summarized with number of asterisks as follows: *p≤0.05, **p≤0.01, ***p≤0.001, ****p≤0.0001. The effective dose of cyclodextrin for hindering endothelial leakage was 10 micrograms/mL.

Compared with “2,3-di-OH-6-sulfo-gamma cyclodextrin sodium salt”, “2,3-dimethyl-6-sulfate-alpha cyclodextrin sodium salt” is higher in “effective dose of cyclodextrin for hindering endothelial leakage / hyperpermeability” value: 10 micrograms/mL for the first, 250 micrograms/mL for the second.

“2,3-dimethyl-6-sulfate-beta cyclodextrin sodium salt” and “2,3-dimethyl-6-sulfate-gamma cyclodextrin sodium salt” are the same in “effective dose of cyclodextrin for hindering endothelial leakage / hyperpermeability” value: 100 micrograms/mL for the first, 100 micrograms/mL for the second.

“2-hydroxypropyl-beta-cyclodextrin [reference compound]” and 2-hydroxypropyl-gamma-cyclodextrin are the same in “effective dose of cyclodextrin for hindering endothelial leakage / hyperpermeability” value: 1000 micrograms/mL for the first, 1000 micrograms/mL for the second.

alpha-cyclodextrin sulfate sodium salt and beta cyclodextrin sulfate sodium salt are the same in “effective dose of cyclodextrin for hindering endothelial leakage / hyperpermeability” value: 10 micrograms/mL for the first, 10 micrograms/mL for the second.

Compared with gamma cyclodextrin sulfate sodium salt, “sulfobutlyether beta cyclodextrin sodium salt” is higher in “effective dose of cyclodextrin for hindering endothelial leakage / hyperpermeability” value: 10 micrograms/mL for the first, 100 micrograms/mL for the second.

“sulfopropylether alpha cyclodextrin sodium salt” and “sulfopropylether beta cyclodextrin sodium salt” are the same in “effective dose of cyclodextrin for hindering endothelial leakage / hyperpermeability” value: 1000 micrograms/mL for the first, 1000 micrograms/mL for the second.

With “sulfopropylether gamma cyclodextrin sodium salt” the “effective dose of cyclodextrin for hindering endothelial leakage / hyperpermeability” value was 1000 micrograms/mL.
